The text below walks through data of ChEMBL document CHEMBL1158607, “2' biaryl amides as novel and subtype selective M1 agonists. Part I: Identification, synthesis, and initial SAR” (Bioorg Med Chem Lett, 2010).

Each structure is given as a SMILES string. A value given as a limit tells only on which side of the number the result lay.

Assay [1] deals with T1, Muscarinic acetylcholine receptor M1 (Homo sapiens, UniProt P11229).
T1 sequence (P11229 whole entry): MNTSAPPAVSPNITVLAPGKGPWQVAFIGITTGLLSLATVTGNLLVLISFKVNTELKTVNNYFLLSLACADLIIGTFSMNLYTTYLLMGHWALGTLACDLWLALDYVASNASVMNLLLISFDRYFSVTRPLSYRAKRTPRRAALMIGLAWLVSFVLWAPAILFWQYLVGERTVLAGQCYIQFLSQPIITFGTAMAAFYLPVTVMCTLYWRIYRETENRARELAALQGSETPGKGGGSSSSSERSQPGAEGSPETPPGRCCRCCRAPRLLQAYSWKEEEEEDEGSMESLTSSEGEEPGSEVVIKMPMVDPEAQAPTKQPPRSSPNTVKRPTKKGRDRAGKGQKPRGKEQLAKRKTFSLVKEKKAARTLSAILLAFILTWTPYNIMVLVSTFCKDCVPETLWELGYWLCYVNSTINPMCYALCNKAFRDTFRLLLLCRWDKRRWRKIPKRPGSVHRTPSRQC
Kind of assay: Agonist activity at human muscarinic M1 receptor expressed in CHO cells assessed as effect on acetylcholine-induced intracellular calcium level by FLIPR assay. The format is functional, cell-based. A general note: Calcium assays in cells follow changes in intracellular calcium, usually with a dye or a luminescent sensor.

The target of assay [2] is T2, Muscarinic acetylcholine receptor M1 (Homo sapiens) (UniProt P11229).
T2 sequence (whole entry): T1 sequence (P11229 whole entry)
Kind of assay: Intrinsic activity at human muscarinic M1 receptor expressed in CHO cells assessed as effect on acetylcholine-induced intracellular calcium level by FLIPR assay relative to acetylcholine. The format is functional, cell-based.

In the case of `O=C(NCc1ccncc1)c1ccccc1-c1nc(Cl)cs1`, the half-maximal effective concentration (EC50) in assay [1] is above 10 µM.

For the molecule `CN(CC1CCNCC1)C(=O)c1ccccc1-c1cccc(Cl)c1`, the EC50 in assay [1] was above 10 µM. For the same molecule, in assay [2], the Intrinsic activity came out at 2%.

For `O=C(NC[C@H]1C[C@H]2CC[C@@H](C1)N2)c1ccccc1-c1cccc(Cl)c1`, the EC50 in assay [1] was above 10 µM.

In the case of `N#Cc1cccc(-c2ccccc2C(=O)NCC2CCNCC2)c1`, in assay [1], the EC50 is above 10 µM.

Turning to `O=C(NCC1CCNCC1)c1ccccc1-c1cccc2ccccc12`, in assay [1], the EC50 was above 10 µM.

As for `O=C(NC1CCCCNC1)c1ccccc1-c1nc(Cl)cs1` (centres undefined), the EC50 in assay [1] was above 10 µM.

Turning to `O=C(NC1CCCNC1)c1ccccc1-c1nc(Cl)cs1` (centres undefined), the half-maximal effective concentration (EC50) in assay [1] was above 10 µM.

Take `O=C(NCC12CCN(CC1)C2)c1ccccc1-c1cccc(Cl)c1`: in assay [1], the EC50 is above 10 µM.

Turning to `COCc1cccc(-c2ccccc2C(=O)NCC2CCNCC2)c1`, the EC50 in assay [1] was above 10 µM.

Consider `O=C(NCC1CCNCC1)c1ccccc1-c1ccccc1Cl`, for which the EC50 in assay [1] is above 10 µM.

`O=C(NCC1CCNCC1)c1ccccc1-c1ccco1`: in assay [1], the concentration giving a half-maximal response (EC50) was above 10 µM.

For the molecule `O=C(NC1CCNC1)c1ccccc1-c1nc(Cl)cs1` (centres undefined), in assay [1], the concentration for a half-maximal effect (EC50) was above 10 µM.

`O=C(NCC1CCN2CCCC1C2)c1ccccc1-c1cccc(Cl)c1` (centres undefined): in assay [1], the EC50 is above 10 µM.

In the case of `O=C(O)c1cccc(-c2ccccc2C(=O)NCC2CCNCC2)c1`, the 50% effective concentration (EC50) in assay [1] is above 10 µM.

`Cc1ccc(-c2ccccc2C(=O)NCC2CCNCC2)cc1`: the EC50 in assay [1] is above 10 µM.

Consider `Cc1c(Cl)cccc1-c1ccccc1C(=O)NCC1CCNCC1`, for which, in assay [1], the EC50 was above 10 µM. For the same molecule, in assay [2], the Intrinsic activity is 5%.

On to `O=C(NCC1CCNCC1)c1ccccc1-c1cc(F)cc(Cl)c1`, for which the EC50 in assay [1] was above 10 µM. The Intrinsic activity in assay [2] amounted to 17%.

On to `CN(C)C(=O)c1cccc(-c2ccccc2C(=O)NCC2CCNCC2)c1`, for which the concentration for a half-maximal effect (EC50) in assay [1] is above 10 µM.

With `O=C(NCC1CCNCC1)c1ccccc1-c1cccc(Cl)c1F`, the EC50 in assay [1] was 1 µM. Moreover, in assay [2], the Intrinsic activity came out at 66%.

As for `CC1CC(CNC(=O)c2ccccc2-c2cccc(Cl)c2)CCN1` (centres undefined), the EC50 in assay [1] is above 10 µM. Also, in assay [2], the Intrinsic activity was determined as 28%.

Regarding `O=C(NCC1CCOCC1)c1ccccc1-c1nc(Cl)cs1`, the concentration for a half-maximal effect (EC50) in assay [1] was above 10 µM.

On to `Cc1cccc(-c2ccccc2C(=O)NCC2CCNCC2)c1`, for which the concentration for a half-maximal effect (EC50) in assay [1] is above 10 µM.

As to `COc1ccccc1-c1ccccc1C(=O)NCC1CCNCC1`, in assay [1], the half-maximal effective concentration (EC50) is above 10 µM.

On to `O=C(NCC1CCNCC1)c1ccccc1-c1cccs1`, for which the half-maximal effective concentration (EC50) in assay [1] was above 10 µM.

`O=C(NCC1CCNCC1)c1ccccc1-c1ccsc1`: in assay [1], the half-maximal effective concentration (EC50) is above 10 µM.

For the molecule `CC1(C)CNCCC1CNC(=O)c1cc(Cl)ccc1-c1cccc(Cl)c1` (centres undefined), the 50% effective concentration (EC50) in assay [1] is above 10 µM.

On to `NC(=O)c1cccc(-c2ccccc2C(=O)NCC2CCNCC2)c1`, for which the concentration giving a half-maximal response (EC50) in assay [1] is above 10 µM.

Regarding `O=C(NCC1CCNCC1)c1ccccc1-c1nccs1`, in assay [1], the EC50 was above 10 µM.

Take `O=C(NCC1CCNCC1)c1ccccc1-c1ccncc1`: the EC50 in assay [1] was above 10 µM.

As to `O=C(NCC1CCNCC1)c1ccccc1-c1ccc(Cl)c(Cl)c1`, the half-maximal effective concentration (EC50) in assay [1] is 0.0501 µM. In addition, the Intrinsic activity in assay [2] was determined as 59%.

With `O=C(NCC1CCNCC1)c1ccccc1-c1ccc(F)cc1`, in assay [1], the EC50 is above 10 µM.

As for `COc1cccc(-c2ccccc2C(=O)NCC2CCNCC2)c1`, the EC50 in assay [1] is above 10 µM.

With `O=C(NCC1CCNCC1)c1ccccc1-c1cccc(F)c1`, in assay [1], the EC50 is above 10 µM.

For `O=C(NCC1CCCN1)c1ccccc1-c1nc(Cl)cs1` (centres undefined), in assay [1], the EC50 is above 10 µM.

Turning to `COc1ccc(-c2ccccc2C(=O)NCC2CCNCC2)cc1`, the concentration for a half-maximal effect (EC50) in assay [1] was above 10 µM.

Consider `N[C@H]1CC[C@H](CNC(=O)c2ccccc2-c2cccc(Cl)c2)CC1`, for which the EC50 in assay [1] was above 10 µM.

Turning to `CC(NC(=O)c1ccccc1-c1cccc(Cl)c1)C1CCNCC1` (centres undefined), the EC50 in assay [1] was above 10 µM. Also, in assay [2], the Intrinsic activity stood at 26%.

`CC(=O)c1cccc(-c2ccccc2C(=O)NCC2CCNCC2)c1`: the EC50 in assay [1] was above 10 µM.

On to `O=C(NCC1CNCCO1)c1ccccc1-c1nc(Cl)cs1` (centres undefined), for which the EC50 in assay [1] was above 10 µM.

Consider `O=C(NCC1CCNCC1)c1ccccc1-c1ccc(F)c(Cl)c1`, for which the concentration for a half-maximal effect (EC50) in assay [1] was 0.0251 µM. Besides, the Intrinsic activity in assay [2] was determined as 76%.

`CC1(CNC(=O)c2ccccc2-c2cccc(Cl)c2)CCNCC1`: the concentration for a half-maximal effect (EC50) in assay [1] was above 10 µM. In addition, in assay [2], the Intrinsic activity came to 45%.

For `O=C(NCC1CCNCC1)c1ccccc1-c1ccc(C(F)(F)F)cc1`, in assay [1], the EC50 was above 10 µM.

For the molecule `O=C(NCC1CCNCC1)c1ccccc1-c1cccc(OC(F)(F)F)c1`, the EC50 in assay [1] was above 10 µM.

For `CS(=O)(=O)c1cccc(-c2ccccc2C(=O)NCC2CCNCC2)c1`, the concentration giving a half-maximal response (EC50) in assay [1] was above 10 µM.

With `O=C(NCC1CCNCC1)c1ccccc1-c1cccc(-c2ccccc2)c1`, the EC50 in assay [1] was above 10 µM.

On to `NS(=O)(=O)c1cccc(-c2ccccc2C(=O)NCC2CCNCC2)c1`, for which, in assay [1], the half-maximal effective concentration (EC50) is above 10 µM.

Turning to `O=C(NCC1CCNCC1)c1ccccc1-c1cc(Cl)ccc1Cl`, the concentration for a half-maximal effect (EC50) in assay [1] was 0.0398 µM. The Intrinsic activity in assay [2] is 100%.

For the molecule `O=C(NCC1CCNCC1)c1ccccc1-c1cc(Cl)cc(Cl)c1`, in assay [1], the 50% effective concentration (EC50) is above 10 µM. For the same molecule, the Intrinsic activity in assay [2] was determined as 24%.

Turning to `O=C(NCC1CCNCC1)c1ccccc1-c1cccnc1`, in assay [1], the EC50 is above 10 µM.

Regarding `O=C(NCC1CCNCC1)c1ccccc1-c1ccc(Cl)s1`, in assay [1], the EC50 is above 10 µM.

As for `Cc1ccc(Cl)cc1-c1ccccc1C(=O)NCC1CCNCC1`, the EC50 in assay [1] was 0.158 µM. For the same molecule, in assay [2], the Intrinsic activity amounted to 86%.

Consider `O=C(NC1CCNCC1)c1ccccc1-c1nc(Cl)cs1`, for which the EC50 in assay [1] was above 10 µM.

Take `Cc1cc(Cl)cc(-c2ccccc2C(=O)NCC2CCNCC2)c1`: the EC50 in assay [1] is 1.58 µM. In assay [2], the Intrinsic activity turned out to be 52%.

Take `O=C(NCC1CCCNC1)c1ccccc1-c1nc(Cl)cs1` (centres undefined): in assay [1], the half-maximal effective concentration (EC50) is above 10 µM.

Turning to `O=C(NCC12CCN(CC1)CC2)c1ccccc1-c1cccc(Cl)c1`, the half-maximal effective concentration (EC50) in assay [1] was above 10 µM.

With `CN(C)c1cccc(-c2ccccc2C(=O)NCC2CCNCC2)c1`, in assay [1], the 50% effective concentration (EC50) is above 10 µM.

In the case of `O=C(NCC1CCNC1)c1ccccc1-c1nc(Cl)cs1` (centres undefined), in assay [1], the EC50 was above 10 µM.

Turning to `CC(=O)Nc1cccc(-c2ccccc2C(=O)NCC2CCNCC2)c1`, the EC50 in assay [1] is above 10 µM.

Consider `O=C(NCC12CCN(CC1)CC2)c1ccccc1-c1nc(Cl)cs1`, for which, in assay [1], the concentration for a half-maximal effect (EC50) is 0.251 µM. In addition, in assay [2], the Intrinsic activity was determined as 63%.

Regarding `O=C(NCC1CCNCC1)c1ccccc1-c1cccc(Cl)c1Cl`, the EC50 in assay [1] is above 10 µM. For the same molecule, in assay [2], the Intrinsic activity came out at 16%.

Regarding `O=C(NCC1CCNCC1)c1ccccc1-c1ccc2ccccc2c1`, the EC50 in assay [1] is above 10 µM.

`O=C(NCC1CCNCC1)c1ccccc1-c1cccc(C(F)(F)F)c1`: in assay [1], the concentration for a half-maximal effect (EC50) is above 10 µM.

Take `CN1CCC(CNC(=O)c2ccccc2-c2cccc(Cl)c2)CC1`: in assay [1], the half-maximal effective concentration (EC50) is above 10 µM. Besides, the Intrinsic activity in assay [2] stood at 16%.

One may read the EC50 as the concentration giving half of the maximal effect.
